Measurements as given in patent US12331035B2, “Bicyclic compound and use thereof” (SK BIOPHARMACEUTICALS CO., LTD., priority 2019, dated 2025).

The compounds below were run against T1, PRMT5-MEP50 enzyme complex (Homo sapiens, UniProt O14744) (assay: In vitro PRMT5 enzyme activity assay (methylation of histone H4 arginine H4R3, ELISA absorbance at 450 nm)). Conditions: S-adenosylmethionine, histone H4 peptide, 2 hours at room temperature, 8 points 10 μM to 0.128 nM.
T1 construct: purchased BPS Bioscience (USA) 51045
Format: biochemical
Method: Method for Measuring Enzyme Activity
In vitro assay: PRMT5-MEP50 enzyme complex, cofactor S-adenosylmethionine (SAM) and histone H4 peptide were reacted in vitro, and methylation of arginine (H4R3) —which is the third amino acid of histone H4—was measured in order to measure the enzyme activity of PRMT5.
Reagents: PRMT5-MEP50 enzyme complex (Catalog No. 51045), blocking buffer (52100-B), histone methyltransferase reaction buffer 2 (4×HMT assay buffer 2, Catalog No. 52170), and primary antibody (primary antibody 4-3, Catalog No. 52150) were purchased from BPS Bioscience (USA). The histone H4 peptide (1-20 amino acids) was custom made by Komabiotech (Korea) and used. S-adenosylmethionine was purchased from NEB (New England Biolabs, USA, Catalog No. B9003S). Plates for coating histone H4 peptide, washing buffer and color development reagent were purchased from the following vendors: Plate (Immobilizer™-Amino Plate, NUNC, Denmark, Catalog No. 436023), carbonate-bicarbonate buffer (Sigma-Aldrich, USA, Catalog No. C3041), washing buffer (10×TBST, Biosesang, Korea, Catalog No. T2005), TMB ELISA substrate (Abcam, UK, Catalog No. ab210902), horseradish peroxidase (HRP)-conjugated antibody (Abcam, UK, Catalog No. ab6721).
Experimental procedure: The histone H4 peptide was diluted with carbonate-bicarbonate buffer and prepared to 100 μg/mL, and then dispensed onto the plate per 100 μL and reacted at 37° C. for 1 hour. PRMT5-MEP50 enzyme complex and S-adenosylmethionine were diluted with histone methyltransferase reaction buffer to prepare 5 μg/mL and 2 μM, respectively, and then 20 μL of PRMT5-MEP50 enzyme complex and 25 μL of S-adenosylmethionine were dispensed onto the plate prepared above. 5 μL of the compound diluted with 10% dimethyl sulfoxide solution was added thereto and reacted at room temperature for 2 hours (final volume=50 μL). The concentration of the compound was diluted 1:5 from 10 μM until the lowest concentration of 0.128 nM, and 8 points were used for the test. After preparing the primary antibody by diluting 1:2000 with blocking buffer, 100 μL was added to the plate and reacted at room temperature for 1 hour. After preparing horseradish peroxidase-conjugated antibody by diluting 1:10,000 with blocking buffer, 100 μL was added to the plate and reacted at room temperature for 1 hour. 100 μL of TMB substrate was added and reacted for 3 minutes at room temperature, and 100 μL of 1 N sulfuric acid was then added to terminate the reaction. Then, the absorbance at 450 nm was measured to calculate the IC50 value of the compound. (+++: 1 to 100 nM, ++: greater than 100 to 1,000 nM, +: greater than 1,000 to 10,000 nM)

T1 sequence (O14744 2-637 limits assumed): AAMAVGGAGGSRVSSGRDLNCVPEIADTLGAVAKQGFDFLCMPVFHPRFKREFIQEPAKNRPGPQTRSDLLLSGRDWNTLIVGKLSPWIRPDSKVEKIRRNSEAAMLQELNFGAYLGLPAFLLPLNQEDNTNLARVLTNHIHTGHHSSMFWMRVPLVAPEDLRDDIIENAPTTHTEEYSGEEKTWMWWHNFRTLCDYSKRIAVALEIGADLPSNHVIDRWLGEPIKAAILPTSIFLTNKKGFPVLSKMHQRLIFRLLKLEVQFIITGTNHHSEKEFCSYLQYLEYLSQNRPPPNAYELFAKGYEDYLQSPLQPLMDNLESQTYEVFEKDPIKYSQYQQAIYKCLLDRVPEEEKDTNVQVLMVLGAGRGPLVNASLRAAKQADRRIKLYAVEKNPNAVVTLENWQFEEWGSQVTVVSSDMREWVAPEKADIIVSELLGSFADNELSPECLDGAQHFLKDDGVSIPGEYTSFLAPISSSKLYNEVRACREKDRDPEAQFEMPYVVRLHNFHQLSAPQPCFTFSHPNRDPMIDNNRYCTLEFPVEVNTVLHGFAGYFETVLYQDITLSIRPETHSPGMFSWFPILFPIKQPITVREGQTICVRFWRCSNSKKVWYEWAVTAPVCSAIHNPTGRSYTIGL
T1 sequence (Q9BQA1 2-342 partner limits assumed): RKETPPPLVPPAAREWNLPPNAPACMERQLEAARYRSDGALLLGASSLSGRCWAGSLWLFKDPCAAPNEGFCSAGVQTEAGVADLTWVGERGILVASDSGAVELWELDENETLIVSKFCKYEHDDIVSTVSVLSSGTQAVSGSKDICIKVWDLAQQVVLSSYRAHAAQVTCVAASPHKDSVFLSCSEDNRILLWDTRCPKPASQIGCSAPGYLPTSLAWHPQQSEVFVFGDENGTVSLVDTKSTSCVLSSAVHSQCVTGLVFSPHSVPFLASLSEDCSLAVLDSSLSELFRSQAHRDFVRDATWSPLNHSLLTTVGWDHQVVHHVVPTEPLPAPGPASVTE

Row | SMILES | IC50
1 | O=C1c2ccc(NCC3CCNCC3)cc2CCN1C[C@H](O)CN1CCc2ccccc2C1 [Example 31, 2-[(2R)-3-(3,4-dihydro-1H-isoquinolin-2-yl)-2-hydroxy-propyl]-6-(4-piperidylmethylamino)-3,4-dihydroisoquinolin-1-one] | 1 to 100 nM
2 | CC(=O)N1CCC(Nc2ccc3c(c2)CCN(C[C@H](O)CN2CCc4ccccc4C2)C3=O)CC1 [Example 32, 6-[(1-acetyl-4-piperidyl)amino]-2-[(2R)-3-(3,4-dihydro-1H-isoquinolin-2-yl)-2-hydroxy-propyl]-3,4-dihydroisoquinolin-1-one] | 1 to 100 nM
3 | O=C(CN1CCOCC1)Nc1ccc2c(c1)CCN(C[C@H](O)CN1CCc3ccccc3C1)C2=O [Example 33, N-[2-[(2R)-3-(3,4-dihydro-1H-isoquinolin-2-yl)-2-hydroxy-propyl]-1-oxo-3,4-dihydroisoquinolin-6-yl]-2-morpholino-acetamide] | 1 to 100 nM
4 | O=C1c2ccc(NC3CCNCC3)cc2CCN1C[C@H](O)CN1CCc2ccccc2C1 [Example 34, 2-[(2R)-3-(3,4-dihydro-1H-isoquinolin-2-yl)-2-hydroxy-propyl]-6-(4-piperidylamino)-3,4-dihydroisoquinolin-1-one] | 1000 to 10000 nM
5 | O=C1c2ccc(N3CCC(CO)CC3)cc2CCN1C[C@H](O)CN1CCc2ccccc2C1 [Example 35, 2-[(2R)-3-(3,4-dihydro-1H-isoquinolin-2-yl)-2-hydroxy-propyl]-6-[4-(hydroxymethyl)-1-piperidyl]-3,4-dihydroisoquinolin-1-one] | 1 to 100 nM
6 | O=C1c2ccc(N3CCCC(CO)C3)cc2CCN1C[C@H](O)CN1CCc2ccccc2C1 (stereo partly drawn) [Example 36, 2-[(2R)-3-(3,4-dihydro-1H-isoquinolin-2-yl)-2-hydroxy-propyl]-6-[3-(hydroxymethyl)-1-piperidyl]-3,4-dihydroisoquinolin-1-one] | 1 to 100 nM
7 | O=C1c2ccc(N3CCC(O)CC3)cc2CCN1C[C@H](O)CN1CCc2ccccc2C1 [Example 37, 2-[(2R)-3-(3,4-dihydro-1H-isoquinolin-2-yl)-2-hydroxy-propyl]-6-(4-hydroxy-1-piperidyl)-3,4-dihydroisoquinolin-1-one] | 1 to 100 nM
8 | O=C1c2ccc(N3CCCC(O)C3)cc2CCN1C[C@H](O)CN1CCc2ccccc2C1 (stereo partly drawn) [Example 38, 2-[(2R)-3-(3,4-dihydro-1H-isoquinolin-2-yl)-2-hydroxy-propyl]-6-(3-hydroxy-1-piperidyl)-3,4-dihydroisoquinolin-1-one] | 100 to 1000 nM
9 | O=C1c2ccc(N3CCOC3)cc2CCN1C[C@H](O)CN1CCc2ccccc2C1 [Example 39, 2-[(2R)-3-(3,4-dihydro-1H-isoquinolin-2-yl)-2-hydroxy-propyl]-6-oxazolidin-3-yl-3,4-dihydroisoquinolin-1-one] | 100 to 1000 nM
10 | CC1COCCN1c1ccc2c(c1)CCN(C[C@H](O)CN1CCc3ccccc3C1)C2=O (stereo partly drawn) [Example 40, 2-[(2R)-3-(3,4-dihydro-1H-isoquinolin-2-yl)-2-hydroxy-propyl]-6-(3-methylmorpholin-4-yl)-3,4-dihydroisoquinolin-1-one] | 1000 to 10000 nM
11 | O=C(CO)Nc1ccc2c(c1)CCN(C[C@H](O)CN1CCc3ccccc3C1)C2=O [Example 41, N-[2-[(2R)-3-(3,4-dihydro-1H-isoquinolin-2-yl)-2-hydroxy-propyl]-1-oxo-3,4-dihydroisoquinolin-6-yl]-2-hydroxy-acetamide] | 1 to 100 nM
12 | CC(=O)Nc1ccc2c(c1)CCN(C[C@H](O)CN1CCc3ccccc3C1)C2=O [Example 42, N-[2-[(2R)-3-(3,4-dihydro-1H-isoquinolin-2-yl)-2-hydroxy-propyl]-1-oxo-3,4-dihydroisoquinolin-6-yl]acetamide] | 100 to 1000 nM
13 | O=C1c2ccc(CN3CCOCC3)cc2CCN1C[C@H](O)CN1CCc2ccccc2C1 [Example 43, 2-[(2R)-3-(3,4-dihydro-1H-isoquinolin-2-yl)-2-hydroxy-propyl]-6-(morpholinomethyl)-3,4-dihydroisoquinolin-1-one] | 1000 to 10000 nM
